From patent US9365584B2, “Thieno [2,3-B] pyridinedione activators of AMPK and therapeutic uses thereof” (Poxel, priority 2009, dated 2016)

test system: AMPK; experiment: AMPK enzyme activity assay (Delfia technology, AMARA peptide substrate); type: biochemical; conditions: compound at 30 μM vs AMP at 200 μM
How it was run: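 Value is the ratio of compound (30 μM) to AMP (200 μM) response, each as % of basal control. Phosphorylation of the AMARA peptide after AMPK addition was read by Delfia with an anti-phosphoserine antibody.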

| Activity: Ratio between the % of control (basal activity) of compound of formula (1) at 30 μM and the % of control (basal activity) of AMP (natural substrate) at 200 μM | Compound |
| --- | --- |
| A (0%<A<50%) | O=C1Nc2scc(-c3ccc(F)cc3F)c2C(=O)C1(F)c1ccccc1 (centres unmarked) [No 179, 3-(2,4-difluorophenyl)-5-fluoro-5-phenyl-7H-thieno[2,3-b]pyridine-4,6-dione] |
| C (C≧75%) | COc1cccc(-c2c(Cl)sc3c2C(=O)C(C)(c2cccc(OC)c2)C(=O)N3)c1 (centres unmarked) [No 61, 2-chloro-3,5-bis(3-methoxyphenyl)-5-methyl-7H-thieno[2,3-b]pyridine-4,6-dione] |
| B (50%≦B<75%) | Cc1sc2c(c1-c1ccc(F)cc1O)C(=O)C(F)(c1ccccc1)C(=O)N2 (centres unmarked) [No 220, 5-fluoro-3-(4-fluoro-2-hydroxy-phenyl)-2-methyl-5-phenyl-7H-thieno[2,3-b]pyridine-4,6-dione] |
| C (C≧75%) | COc1cccc(-c2c(Cl)sc3c2C(=O)C(C)(c2cccc(F)c2)C(=O)N3)c1 (centres unmarked) [No 62, 2-chloro-5-(3-fluorophenyl)-3-(3-methoxyphenyl)-5-methyl-7H-thieno[2,3-b]pyridine-4,6-dione] |
| C (C≧75%) | O=C1Nc2scc(-c3ccc(Br)cc3O)c2C(=O)C1(F)c1ccccc1 (centres unmarked) [No 123, 3-(4-bromo-2-hydroxy-phenyl)-5-fluoro-5-phenyl-7H-thieno[2,3-b]pyridine-4,6-dione] |
| A (0%<A<50%) | Cc1cccc(C2(C)C(=O)Nc3sc(Cl)c(-c4ccc(F)cc4)c3C2=O)c1 (centres unmarked) [No 83, 2-chloro-3-(4-fluorophenyl)-5-methyl-5-(m-tolyl)-7H-thieno[2,3-b]pyridine-4,6-dione] |
| A (0%<A<50%) | Cc1cccc(C2(C)C(=O)Nc3sc(Cl)c(-c4ccccc4)c3C2=O)c1 (centres unmarked) [No 33, 2-chloro-5-methyl-5-(m-tolyl)-3-phenyl-7H-thieno[2,3-b]pyridine-4,6-dione] |
| C (C≧75%) | Cc1ccc(C2(C)C(=O)Nc3sc(Cl)c(-c4cccc(F)c4)c3C2=O)cc1 (centres unmarked) [No 60, 2-chloro-3-(3-fluorophenyl)-5-methyl-5-(p-tolyl)-7H-thieno[2,3-b]pyridine-4,6-dione] |
| B (50%≦B<75%) | COc1ccc(C2(C)C(=O)Nc3sc(Cl)c(-c4ccccc4F)c3C2=O)cc1 (centres unmarked) [No 84, 2-chloro-3-(2-fluorophenyl)-5-(4-methoxyphenyl)-5-methyl-7H-thieno[2,3-b]pyridine-4,6-dione] |
| C (C≧75%) | Cc1cccc(C2(F)C(=O)Nc3sc(Cl)c(-c4ccc(F)cc4O)c3C2=O)c1 (centres unmarked) [No 184, 2-chloro-5-fluoro-3-(4-fluoro-2-hydroxy-phenyl)-5-(m-tolyl)-7H-thieno[2,3-b]pyridine-4,6-dione] |
| B (50%≦B<75%) | COc1ccc(OCc2ccccc2)c(-c2csc3c2C(=O)C(F)(c2ccccc2)C(=O)N3)c1 (centres unmarked) [No 152, 3-(2-benzyloxy-5-methoxy-phenyl)-5-fluoro-5-phenyl-7H-thieno[2,3-b]pyridine-4,6-dione] |
| A (0%<A<50%) | O=C1Nc2scc(-c3ccncc3)c2C(=O)C1(F)c1ccccc1 (centres unmarked) [No 208, 5-fluoro-5-phenyl-3-(4-pyridyl)-7H-thieno[2,3-b]pyridine-4,6-dione] |
| A (0%<A<50%) | CC1(c2ccc(S(C)(=O)=O)cc2)C(=O)Nc2sc(Cl)c(-c3cccc(F)c3)c2C1=O (centres unmarked) [No 149, 2-chloro-3-(3-fluorophenyl)-5-methyl-5-(4-methyl-sulfonylphenyl)-7H-thieno[2,3-b]pyridine-4,6-dione] |
| A (0%<A<50%) | COc1ccc(C2(C)C(=O)Nc3sc(Cl)c(-c4ccc(F)cc4)c3C2=O)cc1 (centres unmarked) [No 53, 2-chloro-3-(4-fluorophenyl)-5-(4-methoxyphenyl)-5-methyl-7H-thieno[2,3-b]pyridine-4,6-dione] |
| A (0%<A<50%) | COc1cccc(O)c1-c1csc2c1C(=O)C(F)(c1ccccc1)C(=O)N2 (centres unmarked) [No 112, 5-fluoro-3-(2-hydroxy-6-methoxy-phenyl)-5-phenyl-7H-thieno[2,3-b]pyridine-4,6-dione] |
| A (0%<A<50%) | O=C1Nc2scc(-c3ccc(F)cc3OCc3ccccc3)c2C(=O)C1(F)c1ccccc1 (centres unmarked) [No 174, 3-(2-benzyloxy-4-fluoro-phenyl)-5-fluoro-5-phenyl-7H-thieno[2,3-b]pyridine-4,6-dione] |
| B (50%≦B<75%) | COc1cc(C)ccc1-c1c(F)sc2c1C(=O)C(F)(c1ccccc1)C(=O)N2 (centres unmarked) [No 119, 2,5-difluoro-3-(2-methoxy-4-methyl-phenyl)-5-phenyl-7H-thieno[2,3-b]pyridine-4,6-dione] |
| C (C≧75%) | CS(=O)(=O)c1ccc(C2(F)C(=O)Nc3sc(Cl)c(-c4ccccc4)c3C2=O)cc1 (centres unmarked) [No 97, 2-chloro-5-fluoro-5-(4-methylsulfonylphenyl)-3-phenyl-7H-thieno[2,3-b]pyridine-4,6-dione] |
| B (50%≦B<75%) | COc1cc(C)ccc1-c1csc2c1C(=O)C(F)(c1ccccc1)C(=O)N2 (centres unmarked) [No 118, 5-fluoro-3-(2-methoxy-4-methyl-phenyl)-5-phenyl-7H-thieno[2,3-b]pyridine-4,6-dione] |
| C (C≧75%) | COc1ccc(C2(F)C(=O)Nc3sc(Cl)c(-c4ccc(F)cc4O)c3C2=O)cc1OC (centres unmarked) [No 219, 2-chloro-5-(3,4-dimethoxyphenyl)-5-fluoro-3-(4-fluoro-2-hydroxy-phenyl)-7H-thieno[2,3-b]pyridine-4,6-dione] |
| A (0%<A<50%) | CC1(c2ccccc2)C(=O)Nc2sc(Cl)c(-c3ccccc3F)c2C1=O (centres unmarked) [No 30, 2-chloro-3-(2-fluorophenyl)-5-methyl-5-phenyl-7H-thieno[2,3-b]pyridine-4,6-dione] |
| C (C≧75%) | COc1ccc(C2(F)C(=O)Nc3sc(Cl)c(-c4ccc(F)cc4O)c3C2=O)cc1C (centres unmarked) [No 225, 2-chloro-5-fluoro-3-(4-fluoro-2-hydroxy-phenyl)-5-(4-methoxy-3-methyl-phenyl)-7H-thieno[2,3-b]pyridine-4,6-dione] |
| A (0%<A<50%) | COc1cccc(C2(C)C(=O)Nc3sc(Cl)c(-c4cccc(F)c4)c3C2=O)c1 (centres unmarked) [No 105, 2-chloro-3-(3-fluorophenyl)-5-(3-methoxyphenyl)-5-methyl-7H-thieno[2,3-b]pyridine-4,6-dione] |
| A (0%<A<50%) | CCOc1ccc(C2(C)C(=O)Nc3sc(C)c(-c4ccc(F)c(C)c4O)c3C2=O)cc1 (centres unmarked) [No 19, 5-(4-ethoxyphenyl)-3-(4-fluoro-2-hydroxy-3-methyl-phenyl)-2,5-dimethyl-7H-thieno[2,3-b]pyridine-4,6-dione] |
| C (C≧75%) | COc1ccc(-c2c(F)sc3c2C(=O)C(F)(c2ccccc2)C(=O)N3)cc1F (centres unmarked) [No 195, 2,5-difluoro-3-(3-fluoro-4-methoxy-phenyl)-5-phenyl-7H-thieno[2,3-b]pyridine-4,6-dione] |
| A (0%<A<50%) | CC1(c2ccc(F)cc2)C(=O)Nc2sc(Cl)c(-c3ccccc3)c2C1=O (centres unmarked) [No 32, 2-chloro-5-(4-fluorophenyl)-5-methyl-3-phenyl-7H-thieno[2,3-b]pyridine-4,6-dione] |
| A (0%<A<50%) | Cc1ccc(C2(C)C(=O)Nc3sc(Cl)c(-c4cccc(C)c4)c3C2=O)cc1 (centres unmarked) [No 117, 2-chloro-5-methyl-3-(m-tolyl)-5-(p-tolyl)-7H-thieno[2,3-b]pyridine-4,6-dione] |
| A (0%<A<50%) | CC1(c2ccccc2)C(=O)Nc2scc(-c3ccc(F)c(F)c3O)c2C1=O (centres unmarked) [No 14, 3-(3,4-difluoro-2-hydroxy-phenyl)-5-methyl-5-phenyl-7H-thieno[2,3-b]pyridine-4,6-dione] |
| B (50%≦B<75%) | O=C1Nc2sc(Cl)c(-c3cccnc3)c2C(=O)C1(F)c1ccccc1 (centres unmarked) [No 71, 2-chloro-5-fluoro-5-phenyl-3-(3-pyridyl)-7H-thieno[2,3-b]pyridine-4,6-dione] |
| B (50%≦B<75%) | O=C1Nc2scc(-c3ccc(Br)cc3)c2C(=O)C1(F)c1ccncc1 (centres unmarked) [No 124, 3-(4-bromophenyl)-5-fluoro-5-(4-pyridyl)-7H-thieno[2,3-b]pyridine-4,6-dione] |

| Compound | Activity: Ratio between the % of control (basal activity) of compound of formula (1) at 30 μM and the % of control (basal activity) of AMP (natural substrate) at 200 μM |
| --- | --- |
| 5-fluoro-3-(2-naphthyl)-5-phenyl-7H-thieno[2,3-b]pyridine-4,6-dione [No 161] | C (C≧75%) |
| 2-chloro-5-fluoro-3-(5-fluoro-2-hydroxy-phenyl)-5-phenyl-7H-thieno[2,3-b]pyridine-4,6-dione [No 221] | C (C≧75%) |
